What was measured:
human orexin 2 receptor = target: T1, human orexin 2 receptor (Homo sapiens, UniProt O43614); test: Assay B: OX2R IP1 (in vitro OX2R potency); format: cell-based; conditions: Table 3; 0.5 nM Orexin A concentration
T1 construct: stably expressing the full-length human orexin 2 receptor; expressed in transfected cells; host or cells: CHO-K1 (CHO-K1/hOX2), co-expressing aequorin
T1 sequence (O43614 1-444): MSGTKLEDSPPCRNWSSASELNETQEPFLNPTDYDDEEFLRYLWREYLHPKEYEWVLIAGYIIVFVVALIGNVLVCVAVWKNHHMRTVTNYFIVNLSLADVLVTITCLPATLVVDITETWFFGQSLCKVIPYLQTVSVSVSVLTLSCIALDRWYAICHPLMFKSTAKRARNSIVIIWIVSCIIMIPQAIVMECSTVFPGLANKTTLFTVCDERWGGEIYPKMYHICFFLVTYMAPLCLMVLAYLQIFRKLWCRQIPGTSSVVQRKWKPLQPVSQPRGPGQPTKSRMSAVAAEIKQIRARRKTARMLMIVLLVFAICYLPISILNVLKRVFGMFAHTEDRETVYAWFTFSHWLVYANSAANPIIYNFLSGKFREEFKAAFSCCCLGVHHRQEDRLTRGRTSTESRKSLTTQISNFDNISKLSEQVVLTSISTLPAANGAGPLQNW
Text: Activation of the orexin receptors expressed in cell lines results in an increase in intracellular IP3 concentration. IP1, a downstream metabolite of IP3, accumulates in cells following receptor activation and is stable in the presence of LiCl. Using Homogeneous Time-Resolved Fluorescence technology with Lumi4-Tb cryptate (commercially available from Cisbio Bioassay.) and a suitable fluorescence plate reader. This functional response is detectable and quantifiable as described in Trinquet et al. Anal. […] Curr. Chem. Genomics 2009, 3, 22-32. This technique is used to characterize pharmacological modification of the orexin receptors. B. In Vitro Testing of OX2R Potency: OX2R IP1 IP1 measurements are performed in CHO-K1 cells stably expressing the full-length human orexin 2 receptor and the aequorin photoprotein. Cells are cultivated in Ham's nutrient mixture F12 medium with 10% fetal calf serum, in a 37° C., 95% humidity and 5% CO2 incubator. The CHO-K1/hOX2 cell mass is expanded to larger cell numbers. The cells are obtained as frozen cells in cryo-vials and stored until use at -150° C. The viability of the cells after thawing is >90%. In preparation for the assay, 24 hours before the assay, the cells are thawed at 37° C. and immediately diluted with cell culture medium. After centrifugation, the cell pellet is resuspended in medium and then distributed into the assay plates with a density of 5000 cells/25 μL per well. The plates are incubated for one hour at room temperature to reduce edge effects before they are incubated for 24 hours at 37° C./5% CO2. […] On the day of the assay, cells in the plate are washed twice with 60 μL assay buffer (20 μL buffer remained in the wells after washing), followed by adding 5 μL per well of compounds diluted in assay buffer. […] The assay plate is incubated for 60 minutes at 37° C. Then 5 μL per well of Anti-IP1-Cryptate Tb solution and 5 μL per well of IP1-d2 dilution are added to all well of the plate and the plate is incubated for a further 60 minutes light protected at room temperature. […] The ratio between the emission at 665 nm and 615 is calculated by the reader. […] AssayExplorer (Accelrys). In order to establish an agonist concentration independent parameter, Kb values are calculated using the following equation: […] Sci. 1993, 14(4), 110-112).

[1] = Assay C: Human MST t1/2 (stability in human liver microsomes); format: in vitro ADME; conditions: for half-life: human liver microsomes
human Orexin 1 receptor = target: T2, human Orexin 1 receptor (Homo sapiens, UniProt O43613); test: Assay A: OX1R IP1 (in vitro OX1R potency); format: cell-based; conditions: for Kb: Table 3
T2 construct: stably expressing the full-length human Orexin 1 receptor; expressed in transfected cells; host or cells: CHO-K1 (CHO-K1/hOX1), co-expressing aequorin
T2 sequence (O43613 1-425): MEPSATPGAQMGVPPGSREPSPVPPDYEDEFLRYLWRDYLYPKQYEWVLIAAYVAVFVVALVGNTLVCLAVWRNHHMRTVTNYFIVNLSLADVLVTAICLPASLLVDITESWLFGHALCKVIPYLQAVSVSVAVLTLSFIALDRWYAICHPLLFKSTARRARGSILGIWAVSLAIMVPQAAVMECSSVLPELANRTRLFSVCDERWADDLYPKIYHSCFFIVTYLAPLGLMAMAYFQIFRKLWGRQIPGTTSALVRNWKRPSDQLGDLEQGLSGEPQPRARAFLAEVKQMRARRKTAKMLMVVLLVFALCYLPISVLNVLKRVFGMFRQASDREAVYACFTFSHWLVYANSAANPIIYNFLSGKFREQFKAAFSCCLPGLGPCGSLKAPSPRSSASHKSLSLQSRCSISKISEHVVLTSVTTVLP

| Structure (SMILES) | Kb (human orexin 2 receptor) | half-life [1] | OX2R Kb/OX1R Kb (human Orexin 1 receptor) | Kb (human Orexin 1 receptor; Orexin A concentration 0.5 nM) | Kb (human Orexin 1 receptor; Orexin A concentration 50 nM) | stability in human liver microsomes (in words) ([1]; compared with closest prior art compounds in WO2016/034882) |
| --- | --- | --- | --- | --- | --- | --- |
| CCN(C(=O)c1c(F)cncc1-n1cccn1)[C@@H](C)COc1ccc(C(F)(F)F)cn1 [Example 24] | 1070 nM | 29 min | 167 | 6.4 nM |  |  |
| CCN(C(=O)c1ncccc1-n1nccn1)[C@@H](C)COc1ccc(C(F)(F)F)cn1 [Example 26] | 267 nM | > 130 min | 281 | 0.95 nM |  |  |
| CCN(C(=O)c1cc(C)cnc1-c1ccn(C)n1)[C@@H](C)COc1ccc(C(F)(F)F)cn1 [Example 27] | 134 nM | 31 min |  | 0.87 nM | 0.69 nM |  |
| CCN(C(=O)c1ccc(C(F)(F)F)nc1-c1ccn(C)n1)[C@@H](C)COc1ccc(C(F)(F)F)cn1 [Example 28] | 705 nM | 11 min | 353 | 2 nM |  |  |
| CCN(C(=O)c1ccncc1-c1ccn(C)n1)[C@@H](C)COc1ccc(C(F)(F)F)cn1 [Example 29] | 1600 nM | 11 min | 184 | 8.7 nM |  |  |
| CCN(C(=O)c1ccc(C)nc1-n1nccn1)[C@@H](C)COc1ncc(C(F)(F)F)cn1 [Example 30] | 3590 nM | > 130 min | 641 | 5.6 nM |  |  |
| CCN(C(=O)c1ccc(OC)nc1-c1ccn(C)n1)[C@@H](C)COc1ccc(C(F)(F)F)cn1 [Example 32] | 106 nM | 12 min | 707 |  | 0.15 nM |  |
| CCN(C(=O)c1ccc(C)nc1-n1nccn1)[C@@H](C)COc1cnc(C(F)(F)F)cn1 [Example 33] | 3280 nM | > 130 min | 421 | 7.8 nM |  |  |
| CCN(C(=O)c1ncccc1-c1ccn(C)n1)[C@@H](C)COc1ccc(C(F)(F)F)cn1 [Example 34] | 285 nM | 81 min | 190 | 1.5 nM |  |  |
| CCN(C(=O)c1cc(F)cnc1-c1ncccn1)[C@@H](C)COc1ncc(C(F)(F)F)cc1F [Example 35] | 3250 nM | > 130 min | 706 | 4.6 nM |  |  |
| CCN(C(=O)c1cnccc1-n1nccn1)[C@@H](C)COc1ccc(C(F)(F)F)cn1 [Example 36] | 240 nM | 15 min | 240 | 1 nM |  |  |
| CCN(C(=O)c1ncc(F)cc1-c1ccn(C)n1)[C@@H](C)COc1ccc(C(F)(F)F)cn1 [Example 37] | 802 nM | 24 min | 243 | 3.3 nM |  |  |
| CCN(C(=O)c1cc(OC)ncc1-c1ccn(C)n1)[C@@H](C)COc1ccc(C(F)(F)F)cn1 [Example 38] | 323 nM | 12 min | 135 | 2.4 nM |  |  |
| CCN(C(=O)c1ccncc1-n1cccn1)[C@@H](C)COc1ccc(C(F)(F)F)cn1 [Example 40] | 1560 nM | 10 min | 120 | 13 nM |  |  |
| CCN(C(=O)c1cnccc1-n1nccn1)[C@@H](C)COc1ncc(C(F)(F)F)cc1F [Example 42] | 483 nM | 13 min | 210 | 2.3 nM |  |  |
| CCN(C(=O)c1cc(OC)cnc1-n1nccn1)[C@@H](C)COc1ccc(Cl)cn1 [Example 43] | 325 nM | 110 min | 171 | 1.9 nM |  |  |
| CCN(C(=O)c1cccnc1-n1nccn1)[C@@H](C)COc1ncc(C(F)(F)F)cc1F [Example 44] | 1210 nM | > 130 min | 289 | 4.2 nM |  |  |
| CCN(C(=O)c1cc(F)cnc1-c1ncccn1)[C@@H](C)COc1cnc(C(F)(F)F)cn1 [Example 45] | 6650 nM | > 130 min | 332 | 20 nM |  |  |
| CCN(C(=O)c1cnccc1-n1nccn1)[C@@H](C)COc1ccc(Cl)cn1 [Example 48] | 381 nM | 33 min | 147 | 2.6 nM |  |  |
| CCN(C(=O)c1nccc(C(F)(F)F)c1-c1ccn(C)n1)[C@@H](C)COc1ccc(C(F)(F)F)cn1 [Example 50] | 26 nM | 23 min | 236 |  | 0.11 nM |  |
| CCN(C(=O)c1cccnc1-n1nccn1)[C@@H](C)COc1ccc(Cl)cn1 [Example 51] | 1140 nM | > 130 min | 138 | 8.3 nM |  |  |
| CCN(C(=O)c1nc(C)ccc1-c1ncccn1)[C@@H](C)COc1cnc(C(F)(F)F)cn1 [Example 53] | 337 nM | > 130 min | 105 | 3.2 nM |  | markedly improved stability in human liver microsomes |
| CCN(C(=O)c1cc(OC)cnc1-n1nccn1)[C@@H](C)COc1ncc(C(F)(F)F)cc1F [Example 54] | 578 nM | > 130 min | 649 | 0.89 nM |  |  |
| CCN(C(=O)c1cc(OC)cnc1-n1nccn1)[C@@H](C)COc1ccc(C(F)(F)F)cn1 [Example 56] | 260 nM | > 130 min |  | 0.5 nM | 0.49 nM |  |
| CCN(C(=O)c1ncccc1-n1nccn1)[C@@H](C)COc1ncc(C(F)(F)F)cc1F [Example 57] | 419 nM | 56 min | 233 | 1.8 nM |  |  |
| CCN(C(=O)c1c(F)ccnc1-c1ccn(C)n1)[C@@H](C)COc1ccc(C(F)(F)F)cn1 [Example 58] | 327 nM | 41 min | 93 | 3.5 nM |  |  |

From patent US10738031B2, “N-[(heteroaryloxy)propanyl]heteroaryl carboxamides as antagonists of orexin subtype 1 receptor activity” (Boehringer Ingelheim International GmbH, priority 2016, dated 2020)
